Measurements from US20250109127A1, “METHODS OF USE OF PHENOXYPROPYLAMINE COMPOUNDS TO TREAT DEPRESSION” (Minerva Neurosciences, Inc., priority 2013, published 2025).
“And” between values parts separate entries of the source, which are not always exact repeats. Equal entries are not always repeated.

System: dopamine release in the rat prefrontal cortex
Experiment: Microdialysis: dopamine release in prefrontal cortex after I.P. administration
Type: in vivo
Details: for DOPAMINE in dialysate, MEAN / DOPAMINE in dialysate, individual animals: Citalopram 10 mg/kg I.P.
Description: The aim of the study was to evaluate, using microdialysis, the effects of an intraperitoneal (I.P.) administration in rats of three different doses of SON-117 on dopamine and its metabolites, serotonin and its metabolite (5-HIAA), and norepinephrine levels in prefrontal cortex.
Thirty-two adult male Wistar rats were used for the whole study (4 groups of eight animals planned for the study, Table 1).
Surgery was performed on rats weighing about 300 g at the beginning of the experiments. Rats were anaesthetized with Ketamine (50 mg/kg) & Xylazine (15 mg/kg) by intramuscular administration. The animals were placed in a stereotaxic apparatus in the flat-skull position at a constant setting of −3.3 mm between ear bars and the incisor bar. The animals were treated with a local anesthesic (xylocaine 1%, Astra Zeneca) and an analgesic (Temgesic, from Schering Plough, 0.05 mg/kg, s.c.). A rostrocaudal midline incision was made with a lancet to expose the dorsal skull surface. The “stereotaxic zero” was defined by the Bregma in accordance with Paxinos and Watson's atlas (1986). A hole was drilled in the skull with a drill and the meninges were pierced with a sterile needle to implant a CMA12 guide cannula which later received the dialysis probe.
Coordinates used for implanting guide cannula in prefrontal cortex from Bregma were anteroposterior 3.7 mm, mediolateral 0.8 mm, and dorsoventral −2 mm (top of the probe was at −5 mm). The guide cannula was fixed to the skull with two stainless steel screws (1.88 mm outside diameter) anchored. An application of dental cement was added. A plastic collar allowed each animal to be tethered to a Swivel assembly of the CMA 120 awake animal system. Following surgery, rats were kept in individual cages and allowed to recover for a minimum of 3-5 days before the experimentation. The rats were handled and put in plastic bowl for 10 min at least every day to habituate the animals to their new environment for the dialysis. An I.P. administration with saline was also performed every day.
Dialysis probes (CMA12/3 mm, membrane, 20 kD cut-off, Carnegie Medicine, Stockholm, Sweden), were carefully washed before inserting into the guide cannula. The wash was performed with the artificial cerebrospinal fluid (aCSF) medium (NaCl 147 mM, KCl 2.7 mM, CaCl2 1.2 mM, MgCl2 0.85 mM) at room temperature. The dialysis system was then equilibrated at 20° C. at a perfusion rate of 1 μl/min with a Carnegie pump (CMA100). All catheters (FEP tubing, internal volume of 1.2 μl/10 cm, and tubing adaptors) used for microdialysis were treated in the same conditions.
The probes duly prepared were inserted into the guide cannula and the CMA120 Swivel assembly secured to the animal using a plastic collar. Flow through the dialysis probe with aCSF was maintained at a rate of 1 μl/min during the whole experimentation. The first four fractions (corresponding to 2 hours) were discarded to avoid the effects of parenchymal disturbance and to ensure that an approximate steady-state level was reached. Fractions were then collected over a period of 8.5 h during which time the animals remained quiet. The dialysates were automatically collected with an autosampler (microfraction collector CMA 140, Carnegie Medicin) and stored at −80° C. until analysis. […] Perfusion was then maintained for 7 hours with aCSF. The dialysates (30 μl) were collected into 300 μl vials, transferred into dry ice and then kept frozen (−80° C.) until analysis. Frozen samples were shipped to a partner for analysis. At the end of the microdialysis study, a PBS with colored ink was perfused through the probe in order to visualize the dialyzed area.
Catecholamine assay: Concentrations of dopamine, DOPAC, HVA, 5-HIAA, 5-HT, and norepinephrin were determined for each sample by HPLC coupled with electrochemical detection.

CN(C)CCCC1(c2ccc(F)cc2)OCc2cc(C#N)ccc21 (centres unmarked) [Citalopram, citalopram, reference compound]
DOPAMINE in dialysate, MEAN (T0-T30 min): 125.10 % of respective basal
DOPAMINE in dialysate, MEAN (T30-T1 h): 100.99 % of respective basal
DOPAMINE in dialysate, individual animals (T30-T1 h): 140.37 % of respective basal and 66.54 % of respective basal and 36.31 % of respective basal and 85.24 % of respective basal and 123.31 % of respective basal and 48.94 % of respective basal and 154.56 % of respective basal and 96.98 % of respective basal
DOPAMINE in dialysate, MEAN (T1 h 30-T2 h): 186.16 % of respective basal
DOPAMINE in dialysate, individual animals (T1 h 30-T2 h): 866.34 % of respective basal and 87.95 % of respective basal and 112.22 % of respective basal and 92.11 % of respective basal and 107.27 % of respective basal and 89.55 % of respective basal and 53.23 % of respective basal and 51.41 % of respective basal
DOPAMINE in dialysate, MEAN (T1 h-T1 h 30): 170.05 % of respective basal
DOPAMINE in dialysate, individual animals (T1 h-T1 h 30): 573.74 % of respective basal and 97.67 % of respective basal and 64.11 % of respective basal and 123.43 % of respective basal and 30.69 % of respective basal and 110.39 % of respective basal and 169.03 % of respective basal and 176.68 % of respective basal
DOPAMINE in dialysate, MEAN (T2 h 30-T3 h): 108.77 % of respective basal
DOPAMINE in dialysate, individual animals (T2 h 30-T3 h): 225.14 % of respective basal and 50.88 % of respective basal and 108.16 % of respective basal and 122.69 % of respective basal and 62.34 % of respective basal and 107.84 % of respective basal and 55.41 % of respective basal and 165.66 % of respective basal
DOPAMINE in dialysate, MEAN (T2 h-T2 h 30): 255.07 % of respective basal
DOPAMINE in dialysate, individual animals (T2 h-T2 h 30): 1031.09 % of respective basal and 91.06 % of respective basal and 160.05 % of respective basal and 100.78 % of respective basal and 166.56 % of respective basal and 132.77 % of respective basal and 334.66 % of respective basal and 26.69 % of respective basal
DOPAMINE in dialysate, MEAN (T3 h 30-T4 h): 115.67 % of respective basal
DOPAMINE in dialysate, individual animals (T3 h 30-T4 h): 243.96 % of respective basal and 23.86 % of respective basal and 113.64 % of respective basal and 73.20 % of respective basal and 174.87 % of respective basal and 59.22 % of respective basal and 97.27 % of respective basal and 119.98 % of respective basal
DOPAMINE in dialysate, MEAN (T3 h-T3 h 30): 151.97 % of respective basal
DOPAMINE in dialysate, individual animals (T3 h-T3 h 30): 49.37 % of respective basal and 157.89 % of respective basal and 78.55 % of respective basal and 231.36 % of respective basal and 125.19 % of respective basal and 190.71 % of respective basal and 225.63 % of respective basal
DOPAMINE in dialysate, MEAN (T4 h 30-T5 h): 103.71 % of respective basal
DOPAMINE in dialysate, individual animals (T4 h 30-T5 h): 201.72 % of respective basal and 24.62 % of respective basal and 85.39 % of respective basal and 56.71 % of respective basal and 60.52 % of respective basal and 195.94 % of respective basal and 92.15 % of respective basal
DOPAMINE in dialysate, MEAN (T4 h-T4 h 30): 197.23 % of respective basal
DOPAMINE in dialysate, individual animals (T4 h-T4 h 30): 337.02 % of respective basal and 36.95 % of respective basal and 127.24 % of respective basal and 110.17 % of respective basal and 45.45 % of respective basal and 94.94 % of respective basal and 255.00 % of respective basal and 192.48 % of respective basal
DOPAMINE in dialysate, MEAN (T5 h 30-T6 h): 143.61 % of respective basal
DOPAMINE in dialysate, individual animals (T5 h 30-T6 h): 63.71 % of respective basal and 183.35 % of respective basal and 112.87 % of respective basal and 229.69 % of respective basal and 57.13 % of respective basal and 228.31 % of respective basal and 145.07 % of respective basal
DOPAMINE in dialysate, MEAN (T5 h-T5 h 30): 151.58 % of respective basal
DOPAMINE in dialysate, individual animals (T5 h-T5 h 30): 209.25 % of respective basal and 54.45 % of respective basal and 141.19 % of respective basal and 97.47 % of respective basal and 150.97 % of respective basal and 246.92 % of respective basal
DOPAMINE in dialysate, MEAN (T6 h 30-T7 h): 152.65 % of respective basal
DOPAMINE in dialysate, individual animals (T6 h 30-T7 h): 300.59 % of respective basal and 88.72 % of respective basal and 128.46 % of respective basal and 71.16 % of respective basal and 147.69 % of respective basal and 77.59 % of respective basal and 325.54 % of respective basal and 82.54 % of respective basal
DOPAMINE in dialysate, MEAN (T6 h-T6 h 30): 90.10 % of respective basal
DOPAMINE in dialysate, individual animals (T6 h-T6 h 30): 138.93 % of respective basal and 48.75 % of respective basal and 107.97 % of respective basal and 57.49 % of respective basal and 83.90 % of respective basal and 102.96 % of respective basal and 83.47 % of respective basal and 66.13 % of respective basal
DOPAMINE in dialysate, MEAN (T-30 min-T0 (pre-dose)): 107.61 % of respective basal
DOPAMINE in dialysate, MEAN (T-1 h 30-T-1 h (pre-dose)): 77.78 % of respective basal
DOPAMINE in dialysate, individual animals (T-1 h 30-T-1 h (pre-dose)): 71.31 % of respective basal
DOPAMINE in dialysate, MEAN (T-1 h-T-30 min (pre-dose)): 98.79 % of respective basal
dopamine levels, increase (not significant) (citalopram 10 mg/kg I.P., from T1.5 h and 2.5 h): 255%
